Results from PubChem BioAssay AID330 (DTP/NCI, 2004).
Several values for one entry are separate records, joined by “and”; a condition that tells them apart may be missing. Equal entries are not always repeated. Toxic doses and inconclusive results are not listed. The calls were made as follows: active = survival T/C of 150% or more; inactive = T/C below 125% in these data.

Tested on: P388 leukemia ip, CD2F1 mice, survival T/C
Assay: NCI In Vivo Anticancer Drug Screen. Data for tumor model P388 Leukemia (intraperitoneal) in CD2F1 (CDF1) mice
Details: endpoint: median survival time, higher = longer survival
In short: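 Mice carrying the transplanted tumor received test compound or vehicle. Survival was recorded in each group, and the value is the treated-group measurement divided by that of the vehicle-treated control group.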

[1] = dose: 50.0 mg/kg/injection, schedule: Q01DX009 (ip), vehicle: saline with Tween-80
[2] = dose: 100.0 mg/kg/injection, schedule: Q04DX003 (ip), vehicle: saline with Tween-80
[3] = dose: 200.0 mg/kg/injection, schedule: Q04DX003 (ip), vehicle: saline with Tween-80
[4] = dose: 50.0 mg/kg/injection, schedule: Q01DX005 (ip), vehicle: saline with Tween-80
[5] = dose: 100.0 mg/kg/injection, schedule: Q01DX005 (ip), vehicle: saline with Tween-80
[6] = dose: 200.0 mg/kg/injection, schedule: Q01DX005 (ip), vehicle: saline with Tween-80
[7] = dose: 12.5 mg/kg/injection, schedule: Q01DX009 (ip), vehicle: saline with Tween-80
[8] = dose: 25.0 mg/kg/injection, schedule: Q01DX009 (ip), vehicle: saline with Tween-80
[9] = dose: 60.0 mg/kg/injection, schedule: Q01DX005 (ip), vehicle: saline with Tween-80
[10] = dose: 120.0 mg/kg/injection, schedule: Q01DX005 (ip), vehicle: saline with Tween-80
[11] = dose: 240.0 mg/kg/injection, schedule: Q01DX005 (ip), vehicle: saline with Tween-80

Measured: T/C

CC(=O)c1cc(C)[nH]c1C
inactive: dose: 37.5 mg/kg/injection, schedule: Q01DX009 (ip), vehicle: Klucel (hydroxypropylcellulose) (HPC) 103 % of control | [1] 100 % of control | dose: 50.0 mg/kg/injection, schedule: Q04DX003 (ip), vehicle: saline with Tween-80 100 % of control | dose: 75.0 mg/kg/injection, schedule: Q01DX009 (ip), vehicle: Klucel (hydroxypropylcellulose) (HPC) 103 % of control | dose: 100.0 mg/kg/injection, schedule: Q01DX009 (ip), vehicle: saline with Tween-80 113 % of control | [2] 109 % of control | dose: 150.0 mg/kg/injection, schedule: Q01DX009 (ip), vehicle: Klucel (hydroxypropylcellulose) (HPC) 103 % of control | dose: 150.0 mg/kg/injection, schedule: Q01DX009 (ip), vehicle: saline with Tween-80 105 % of control | dose: 200.0 mg/kg/injection, schedule: Q01DX009 (ip), vehicle: saline with Tween-80 113 % of control | [3] 109 % of control

CCC[C@H]1N=C(OCC)N[C@@H]1CCC
inactive: dose: 6.25 mg/kg/injection, schedule: Q01DX005 (ip), vehicle: Klucel (hydroxypropylcellulose) (HPC) 108 % of control | dose: 12.5 mg/kg/injection, schedule: Q01DX005 (ip), vehicle: Klucel (hydroxypropylcellulose) (HPC) 117 % of control

COc1ccc(CN2CCCN(Cc3ccc(OC)cc3)C2c2cc3ccccc3c3ccccc23)cc1
inactive: [4] 99 % of control | [5] 99 % of control | [6] 101 % of control

NS(=O)(=O)c1ccc(Nc2c3ccc(Cl)cc3nc3ncccc23)cc1
inactive: [4] 108 % of control | [5] 101 % of control | [6] 94 % of control

c1ccc(CN2CSC3CCCCC32)cc1 (stereo unspecified)
inactive: dose: 25.0 mg/kg/injection, schedule: Q01DX005 (ip), vehicle: saline 102 % of control | dose: 50.0 mg/kg/injection, schedule: Q01DX005 (ip), vehicle: saline 109 % of control and 110 % of control | dose: 100.0 mg/kg/injection, schedule: Q01DX005 (ip), vehicle: saline 107 % of control and 118 % of control | dose: 200.0 mg/kg/injection, schedule: Q01DX005 (ip), vehicle: saline 120 % of control

CCCCCCCCCCCCCCCC(=O)NCCN(CC)CC
inactive: [7] 105 % of control | [8] 100 % of control

CCOC(=O)C(Br)CN1C(=O)c2ccccc2C1=O (stereo unspecified)
inactive: [9] 97 % of control | [10] 115 % of control

CC(=O)OC(C)(C)/C=C/C(=O)[C@](C)(O)[C@H]1[C@H](O)C[C@@]2(C)[C@@H]3CC=C4[C@@H](C[C@H](O)C(=O)C4(C)C)[C@]3(C)C(=O)C[C@]12C
inactive: dose: 0.13 mg/kg/injection, schedule: Q01DX010 (ip), vehicle: saline 95 % of control | dose: 0.25 mg/kg/injection, schedule: Q01DX009 (ip), vehicle: saline with Tween-80 104 % of control | dose: 0.25 mg/kg/injection, schedule: Q01DX010 (ip), vehicle: saline 104 % of control | dose: 0.5 mg/kg/injection, schedule: Q01DX009 (ip), vehicle: saline with Tween-80 100 % of control | dose: 0.5 mg/kg/injection, schedule: Q01DX010 (ip), vehicle: saline 100 % of control | dose: 0.62 mg/kg/injection, schedule: Q01DX009 (ip), vehicle: saline 113 % of control | dose: 1.0 mg/kg/injection, schedule: Q01DX009 (ip), vehicle: saline with Tween-80 109 % of control | dose: 1.0 mg/kg/injection, schedule: Q01DX010 (ip), vehicle: saline 104 % of control | dose: 1.25 mg/kg/injection, schedule: Q01DX009 (ip), vehicle: saline 117 % of control | dose: 2.0 mg/kg/injection, schedule: Q01DX009 (ip), vehicle: saline with Tween-80 118 % of control | dose: 2.5 mg/kg/injection, schedule: Q01DX009 (ip), vehicle: saline 117 % of control | dose: 5.0 mg/kg/injection, schedule: Q01DX009 (ip), vehicle: saline 113 % of control | dose: 10.0 mg/kg/injection, schedule: Q01DX009 (ip), vehicle: saline 113 % of control

COc1ccc(C2COc3c(ccc(O)c3O)C2)cc1OC (stereo unspecified)
inactive: [9] 94 % of control | [10] 94 % of control | [11] 94 % of control

CCN(CC)c1cccc(OC(=O)Nc2cccc(C(F)(F)F)c2)c1
inactive: [9] 106 % of control | [10] 94 % of control | [11] 97 % of control

CN=C(NC)c1ccc(NC(=O)c2ccc(C(=O)Nc3ccc(C(=NC)NC)cc3)c([N+](=O)[O-])c2)cc1
inactive: dose: 1.56 mg/kg/injection, schedule: Q01DX005 (ip), vehicle: Klucel (hydroxypropylcellulose) (HPC) 106 % of control | dose: 3.12 mg/kg/injection, schedule: Q01DX005 (ip), vehicle: Klucel (hydroxypropylcellulose) (HPC) 118 % of control

CO/C=C1\CC(=O)N(C)C1=O
inactive: [2] 110 % of control | [3] 97 % of control | dose: 400.0 mg/kg/injection, schedule: Q04DX003 (ip), vehicle: saline with Tween-80 97 % of control

Cc1ccc(N=Nc2c(-c3ccccc3)nn(C(=S)S)c2-c2ccccc2)cc1
inactive: dose: 25.0 mg/kg/injection, schedule: Q04DX002 (ip), vehicle: Klucel (hydroxypropylcellulose) (HPC) 101 % of control | dose: 50.0 mg/kg/injection, schedule: Q04DX002 (ip), vehicle: Klucel (hydroxypropylcellulose) (HPC) 105 % of control | dose: 100.0 mg/kg/injection, schedule: Q04DX002 (ip), vehicle: Klucel (hydroxypropylcellulose) (HPC) 99 % of control | dose: 200.0 mg/kg/injection, schedule: Q04DX002 (ip), vehicle: Klucel (hydroxypropylcellulose) (HPC) 103 % of control

[B-][N+](C)(C)Cc1ccccc1
inactive: [7] 90 % of control | [8] 90 % of control | [1] 109 % of control

C=C(C)c1ccc2c(c1)[C@H](OC(=O)c1ccccc1)C[C@H]1[C@](C)(COC(=O)c3ccccc3)CCC[C@]21C
inactive: [9] 105 % of control | [10] 92 % of control | [11] 90 % of control

C/C(=N\O)c1cc(Br)cc([N+](=O)[O-])c1O
inactive: dose: 50.0 mg/kg/injection, schedule: Q01DX005 (ip), vehicle: Klucel (hydroxypropylcellulose) (HPC) 100 % of control | dose: 100.0 mg/kg/injection, schedule: Q01DX005 (ip), vehicle: Klucel (hydroxypropylcellulose) (HPC) 94 % of control

COC(=O)c1nc(=S)[nH]c(C(=O)OC)c1C(=O)c1cccc(O)c1
inactive: dose: 60.0 mg/kg/injection, schedule: Q01DX005 (ip), vehicle: suspension in saline 95 % of control | dose: 120.0 mg/kg/injection, schedule: Q01DX005 (ip), vehicle: suspension in saline 90 % of control

Cc1ccc(C(=O)NC2c3ccccc3Oc3ccccc32)cc1
inactive: [4] 90 % of control | [5] 86 % of control

O=NNc1nc2ccc([N+](=O)[O-])cc2s1
inactive: dose: 3.12 mg/kg/injection, schedule: Q01DX009 (ip), vehicle: water 95 % of control | dose: 6.25 mg/kg/injection, schedule: Q01DX009 (ip), vehicle: water 95 % of control | dose: 12.5 mg/kg/injection, schedule: Q01DX009 (ip), vehicle: water 103 % of control and 97 % of control | dose: 25.0 mg/kg/injection, schedule: Q01DX009 (ip), vehicle: water 106 % of control and 109 % of control and 112 % of control | dose: 50.0 mg/kg/injection, schedule: Q01DX009 (ip), vehicle: water 112 % of control and 118 % of control

O=C1N(c2ccccc2)C(=Nc2ccccc2)C(=Nc2ccccc2)N1c1ccccc1
inactive: dose: 50.0 mg/kg/injection, schedule: Q01DX005 (ip), vehicle: Klucel + Tween-80 96 % of control | dose: 100.0 mg/kg/injection, schedule: Q01DX005 (ip), vehicle: Klucel + Tween-80 91 % of control | dose: 200.0 mg/kg/injection, schedule: Q01DX005 (ip), vehicle: Klucel + Tween-80 92 % of control

COC(=O)N(C)SN(C)C(=O)O/N=C(\SC)C(=O)N(C)C
inactive: dose: 1.56 mg/kg/injection, schedule: Q01DX009 (ip), vehicle: saline 101 % of control | dose: 3.12 mg/kg/injection, schedule: Q01DX009 (ip), vehicle: saline 102 % of control
